EC50 and Ki data for five molecules are collected here from ChEMBL document CHEMBL1136709, “Synthesis and estrogen receptor binding affinities of 7-hydroxy-3-(4-hydroxyphenyl)-4H-1-benzopyran-4-ones containing a basic side chain” (Bioorg Med Chem Lett, 2003).

One may read the pEC50 as the EC50 on a negative log10 scale, so that one unit is a factor of ten. Usually pKi stands for the Ki on a negative log10 scale, so that one unit is a factor of ten.

The target in this assay is T1, Estrogen receptor (Homo sapiens, UniProt P03372).
T1 sequence (P03372 whole entry): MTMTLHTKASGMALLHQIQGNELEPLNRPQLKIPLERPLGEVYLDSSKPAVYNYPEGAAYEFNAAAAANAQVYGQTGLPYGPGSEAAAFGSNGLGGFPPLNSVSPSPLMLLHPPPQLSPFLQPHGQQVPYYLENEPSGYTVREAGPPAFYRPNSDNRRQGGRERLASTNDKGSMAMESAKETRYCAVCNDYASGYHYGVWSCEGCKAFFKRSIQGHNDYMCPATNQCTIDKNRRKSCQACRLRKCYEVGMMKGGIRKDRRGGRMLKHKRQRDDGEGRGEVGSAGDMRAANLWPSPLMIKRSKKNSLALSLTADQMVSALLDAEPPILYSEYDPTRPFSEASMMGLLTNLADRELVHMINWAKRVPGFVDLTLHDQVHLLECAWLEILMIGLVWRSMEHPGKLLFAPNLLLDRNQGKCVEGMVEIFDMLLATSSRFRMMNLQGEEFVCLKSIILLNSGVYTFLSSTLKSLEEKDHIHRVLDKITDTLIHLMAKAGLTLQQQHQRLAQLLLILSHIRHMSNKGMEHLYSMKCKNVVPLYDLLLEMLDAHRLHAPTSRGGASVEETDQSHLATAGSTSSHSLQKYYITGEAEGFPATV
Description: Binding affinity for Estrogen receptor alpha.

pEC50, pKi: −log10 of the molar value.

In turn, `O=c1c(-c2ccc(O)cc2)c(Sc2ccc(OCCN3CCCCC3)cc2)oc2cc(O)ccc12` had a pEC50 of 6.11.

With `O=c1c(-c2ccc(O)cc2)c(Sc2ccc(O)cc2)oc2cc(O)ccc12`, the pEC50 was 5.73. Regarding `O=C(c1ccc(OCCN2CCCCC2)cc1)c1oc2cc(O)ccc2c(=O)c1-c1ccc(O)cc1`, the pKi is 8.41. On to `O=c1c(-c2ccc(O)cc2)c(Oc2ccc(O)cc2)oc2cc(O)ccc12`, for which the negative-log EC50 (pEC50) was 5.76. In turn, `O=c1c(-c2ccc(O)cc2)c(Oc2ccc(OCCN3CCCCC3)cc2)oc2cc(O)ccc12` showed a pEC50 of 6.70.
